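Step 1: Grow cells in 96-well plates. Step 2: Expose to compound for 48 hours at 5 concentrations. Step 3: Interpolate endpoints linearly; if unreached, use highest concentration. Definition used: TGI = concentration required for complete inhibition of growth.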
Key:
Experiment in all cases: DTP human tumour cell line panel, 48 h
786-0 renal = test system: 786-0 renal
DU-145 prostate = test system: DU-145 prostate
EKVX NSCLC = test system: EKVX NSCLC
HL-60(TB) leukemia = test system: HL-60(TB) leukemia
M14 melanoma = test system: M14 melanoma
MALME-3M melanoma = test system: MALME-3M melanoma
MDA-MB-231 breast = test system: MDA-MB-231 breast
MOLT-4 leukemia = test system: MOLT-4 leukemia
NCI-H23 lung = test system: NCI-H23 lung
NCI-H460 lung = test system: NCI-H460 lung
NCI/ADR-RES ovarian = test system: NCI/ADR-RES ovarian
OVCAR-5 ovarian = test system: OVCAR-5 ovarian
SK-MEL-2 melanoma = test system: SK-MEL-2 melanoma
SK-MEL-28 melanoma = test system: SK-MEL-28 melanoma
SR leukemia = test system: SR leukemia
TK-10 renal = test system: TK-10 renal
U251 CNS = test system: U251 CNS
UACC-257 melanoma = test system: UACC-257 melanoma
UACC-62 melanoma = test system: UACC-62 melanoma
UO-31 renal = test system: UO-31 renal

SMILES | TGI (786-0 renal) [µM] | TGI (DU-145 prostate) [µM] | TGI (EKVX NSCLC) [µM] | TGI (HL-60(TB) leukemia) [µM] | TGI (M14 melanoma) [µM] | TGI (MALME-3M melanoma) [µM] | TGI (MDA-MB-231 breast) [µM] | TGI (MOLT-4 leukemia) [µM] | TGI (NCI-H23 lung) [µM] | TGI (NCI-H460 lung) [µM] | TGI (NCI/ADR-RES ovarian) [µM] | TGI (OVCAR-5 ovarian) [µM] | TGI (SK-MEL-2 melanoma) [µM] | TGI (SK-MEL-28 melanoma) [µM] | TGI (SR leukemia) [µM] | TGI (TK-10 renal) [µM] | TGI (U251 CNS) [µM] | TGI (UACC-257 melanoma) [µM] | TGI (UACC-62 melanoma) [µM] | TGI (UO-31 renal) [µM]
CC1(C)CCC[C@@]2(C)C1C(=O)[C@@H]1O[C@]1(C)[C@@H]2CO (stereo not given in full) | > 100 | > 100 | > 100 | 51.8 | > 100 | > 100 | > 100 | > 100 | 67.9 | > 100 | > 100 | > 100 | 66.5 | 80.9 | 24.9 | > 100 | 70.8 | > 100 | > 100 | > 100
O=C(NCCNCCNC(=O)C(F)(F)F)C(F)(F)F | > 100 | > 100 | > 100 | > 100 | > 100 | > 100 | > 100 | > 100 | > 100 |  | > 100 | > 100 | > 100 | > 100 | > 100 | > 100 | > 100 | > 100 | > 100 | > 100
COc1cc2ccc1OCc1cccc(n1)COc1ccc(cc1OC)C=Nc1ccc(cc1)-c1ccc(cc1)N=C2 | > 100 | > 100 | > 100 | > 100 | > 100 | > 100 | > 100 | > 100 | > 100 | > 100 | > 100 |  | > 100 |  | > 100 | > 100 | > 100 | > 100 | > 100 | > 100
O=C1CCCCCC1CC(Sc1ccccc1)Sc1ccccc1 (stereo not given) | > 100 | > 100 | > 100 | 52.7 | > 100 | > 100 | > 100 | 47.3 | > 100 | > 100 | > 100 | > 100 | > 100 | > 100 | > 100 | > 100 | > 100 | > 100 | > 100 | > 100
CCCC(=O)OCC1OC(n2cc(F)c(=O)[nH]c2=O)C(F)C1OC(=O)CCC (stereo not given) | > 100 | > 100 | > 100 | > 100 | > 100 | > 100 | > 100 | > 100 | > 100 | > 100 | > 100 | > 100 | > 100 | > 100 | > 100 | > 100 | > 100 | > 100 | > 100 | > 100
CCN(CC)c1ccc2cc(C(=O)Nc3nc(C45CC6CC(CC(C6)C4)C5)cs3)c(=O)oc2c1 | > 100 | > 100 | > 100 | > 100 |  | > 100 | > 100 | > 100 | > 100 | > 100 | > 100 | > 100 |  | > 100 | > 100 | > 100 | > 100 | > 100 |  | > 100
Cc1ccc(CC(Cc2ccc(C)cc2C(=O)O)C(=O)O)cc1 (stereo not given) | > 100 | > 100 | > 100 | > 100 | > 100 | > 100 | > 100 | > 100 | > 100 | > 100 | > 100 | > 100 | > 100 | > 100 | > 100 | > 100 | > 100 | > 100 | > 100 | > 100
CCCCCCCCCCCCCCCC(=O)OC(COC(C)=O)CO[P+](=O)O (stereo not given) | 38.9 | > 100 | > 100 | > 100 | 28.4 | > 100 | 50.5 | 80.7 |  | > 100 | 80.8 | 38.6 | 40.6 | > 100 | 62 | > 100 | 45.3 | > 100 | > 100 | 97.1
COc1ccc([C@]23CCN(S(=O)(=O)c4ccc(C)cc4)[C@H]2[C@H](CO)C2(CC3)OCC(C)(C)CO2)cc1OC | > 100 | > 100 | > 100 | > 100 | > 100 | > 100 | > 100 | > 100 | > 100 | > 100 | > 100 | > 100 | > 100 | > 100 | > 100 | > 100 | > 100 | > 100 | > 100 | > 100
CC1(C)N=C(C(=O)c2ccccc2)N(O)C1(O)c1ccccc1 (stereo not given) | > 100 | > 100 | > 100 | > 100 | > 100 | > 100 | > 100 | > 100 | > 100 | > 100 | > 100 | > 100 | > 100 | > 100 | > 100 | > 100 | > 100 | > 100 | > 100 | > 100
C[C@H](CCC(=O)O)[C@H]1CC[C@H]2[C@@H]3[C@H](O)C[C@@H]4C[C@H](O)CC[C@]4(C)[C@H]3CC[C@]12C | > 100 | > 100 | > 100 | > 100 | 85.2 | > 100 | > 100 | 62 | 64.7 | 92 | > 100 | > 100 | 53.5 | > 100 | 47.4 | > 100 | > 100 | > 100 | > 100 | 58.5
C[N+](C)(C)CC(=O)N/N=C(/CC1OC(=O)c2ccccc21)c1ccccc1O (stereo not given) | 86.5 | > 100 | > 100 | 52.3 | > 100 | > 100 | > 100 | 42.4 | 85.4 | 70.9 | 55.4 | > 100 | > 100 | > 100 | 34 | > 100 | 72.3 | 78.9 | 72.1 | 56.1
COc1cc2c(c(OC)c1OC)C(=O)[C@H](Br)[C@H]2NC(=O)NCCCl | > 100 | > 100 | > 100 | > 100 | > 100 | > 100 | > 100 | > 100 | > 100 | > 100 | > 100 | > 100 | > 100 | > 100 | > 100 | > 100 | > 100 | > 100 | > 100 | > 100
CCSC1=N/C(=C/c2ccccc2O)C(=O)N1 | > 100 | > 100 | > 100 | > 100 | > 100 | > 100 | > 100 | > 100 | > 100 | > 100 | > 100 | > 100 | > 100 | > 100 | > 100 |  | > 100 | > 100 | > 100 | > 100
CN(/N=C\c1ccc2ccccc2c1)C1=NCCN1 | 47.4 | > 100 | 63.3 | 33 |  | 29.7 | 36.1 | 40.9 | > 100 | 30.6 | 82.1 | > 100 | 30.9 | 28.4 | 56.6 | 28.5 | 56.5 | 29.5 | 38.8 | 31.7
CC1(C)CCCOc2cccc(c2)OCCCC(C)(C)C1=O | > 100 | > 100 | > 100 | > 100 | > 100 | 70.3 | > 100 | 37.1 | > 100 | > 100 | > 100 | > 100 | 54.9 | > 100 | > 100 | > 100 | > 100 |  | 73.6 | > 100
CCOC(=O)CCC(NC(=O)c1ccc(Nc2cnc3ccc(C(F)(F)F)cc3n2)cc1)C(=O)OCC (stereo not given) | > 56.6 | > 100 | > 89.6 | > 100 | > 100 | > 100 | 25.2 | > 100 | > 72.5 | > 100 | 52.7 | > 100 | > 100 | > 100 | > 100 | > 40.8 | > 100 | > 100 | > 77.5 | > 100
Cn1c2ccccc2n2c3ccccc3c(=O)c(C#N)c12 | > 59.9 | 65.8 | > 100 | > 100 | > 100 | 49.9 | 41.9 | 17.8 | > 59.8 | > 61.1 | > 60.1 | > 100 | > 100 | > 100 | 48.3 | > 100 | 55.5 | > 100 | > 58.3 | > 71.2
S=C1N=C(Cl)/C(=C\c2ccco2)N1 | > 100 | > 100 | > 100 | > 100 | > 100 | > 100 | > 100 |  | > 100 | > 100 | > 100 | > 100 | > 100 | > 100 | > 100 | > 100 | > 100 | > 100 | > 100 | > 100
O=C(O)c1cc(O)c2c(c1)C([C@@H]1c3cccc(O)c3C(=O)c3c(O)cc(C(=O)O)cc31)c1cccc(O)c1C2=O (stereo not given in full) | > 100 | > 100 | > 100 | 85.5 |  | 44.7 | 95.8 | 69.2 | > 100 | > 100 | > 100 | > 100 |  | > 100 | > 100 | > 100 | 67.8 | > 100 | 78.6 | > 100
CC(=O)Oc1cc(C)c(OC(C)=O)c2c1[C@H]1CC[C@]3(C)[C@@H](OC(C)=O)CC[C@H]3[C@@H]1CC2 | 43.1 | 31.5 | 26.4 | 56.7 | 30.2 | 36 | 32.7 | 33.7 | 34.8 | 33.1 | 41.2 | 36 |  | 29.9 | > 100 | 31.6 | 29.4 | 30 | 32.8 | 28.7
CNC(=O)CNC(=O)C(Cc1ccc(NC(=O)CCCCC(C)=O)cc1)NC(=O)C(CCC(=O)OCc1ccccc1)NC(=O)OC(C)(C)C (stereo not given) | > 100 | > 100 | > 100 | > 100 | > 100 | > 100 | > 100 | > 100 | > 100 | > 100 | > 100 | > 100 |  | > 100 | > 100 | > 100 | > 100 |  | > 100 | > 100
CCNc1nc2c(ncn2C2CC(O)C(COP(=O)(O)O)O2)c(=O)[nH]1 (stereo not given) | > 100 | > 100 | > 100 | > 100 | > 100 | > 100 | > 100 |  | > 100 | > 100 | > 100 | > 100 | > 100 | > 100 | > 100 | > 100 | > 100 | > 100 | > 100 | 
O=[N+]([O-])C(=C(Nc1ccccc1)Nc1ccccc1)/C(Cl)=C(\Cl)Br | 31.2 | 31.1 | 32.1 | 4.41 | 20.1 | 37.1 | 29 | 13.4 | 29.1 | 54.5 | 29.7 | 22.5 | 38.3 | 29.9 | 22.6 |  | 28.2 | 27.8 |  | 21.7

Source: PubChem BioAssay (NCI)
